Experiment [1] relates to LNCaP. In words: Antiproliferative activities against human LNCaP cells assessed as cell viability measured after 72 hrs by CCK8 assay. Type of experiment: functional, cell-based. On the technique in general: Tetrazolium dyes change colour on reduction, which living cells bring about.
Experiment [2] concerns LNCaP C4-2B. In words: Antiproliferative activities against human LNCaP C4-2B cells assessed as cell viability measured after 72 hrs by CCK8 assay. Type of experiment: functional, cell-based.
Experiment [3] deals with LNCaP C4-2B. Nature of the experiment: Inhibition of colony formation in human LNCaP C4-2B cells measured after 14 days incubation by Crystal-violet staining based assay. Type of experiment: functional, cell-based. Conditions: dose 10-40 µM, time 14.0 day.
Experiment [4] has as its system LNCaP C4-2B. Nature of the experiment: Induction of apoptosis in human LNCaP C4-2B cells assessed as apoptotic cells at 5 uM measured after 48 hrs of incubation by Annexin V-FITC staining based flow cytometry relative to control. Type of experiment: functional. Background: Flow cytometry measures light scatter and fluorescence of single cells or particles in a stream.

For experiment [5], the system named is LNCaP C4-2B. Nature of the experiment: Induction of apoptosis in human LNCaP C4-2B cells assessed as apoptotic cells at 10 uM measured after 48 hrs of incubation by Annexin V-FITC staining based flow cytometry relative to control. Type of experiment: functional.
For experiment [6], the system named is LNCaP C4-2B. In words: Induction of apoptosis in human LNCaP C4-2B cells assessed as apoptotic cells at 20 uM measured after 48 hrs of incubation by Annexin V-FITC staining based flow cytometry relative to control. Type of experiment: functional.
In experiment [7] the test system is LNCaP C4-2B. In words: Induction of apoptosis in human LNCaP C4-2B cells assessed as apoptotic cells at 40 uM measured after 48 hrs of incubation by Annexin V-FITC staining based flow cytometry relative to control. Type of experiment: functional.
Experiment [8] concerns LNCaP C4-2B. Nature of the experiment: Induction of cell cycle arrest in human LNCaP C4-2B cells assessed as accumulation cells at G0/G1 phase at 5 uM measured after 48 hrs incubation by flow cytometry (reference value: 70.82%). Type of experiment: functional.
Experiment [9] deals with LNCaP C4-2B. Nature of the experiment: Induction of cell cycle arrest in human LNCaP C4-2B cells assessed as accumulation cells at G2/M phase at 5 uM measured after 48 hrs incubation by flow cytometry (reference value: 10.85%). Type of experiment: functional.
The subject of experiment [10] is LNCaP C4-2B. In words: Induction of cell cycle arrest in human LNCaP C4-2B cells assessed as accumulation cells at S phase at 5 uM measured after 48 hrs incubation by flow cytometry (reference value: 18.33%). Type of experiment: functional.
The test system of experiment [11] is LNCaP C4-2B. In words: Induction of cell cycle arrest in human LNCaP C4-2B cells assessed as accumulation cells at G0/G1 phase at 10 uM measured after 48 hrs incubation by flow cytometry (reference value: 70.82%). Type of experiment: functional.
For experiment [12], the system named is LNCaP C4-2B. In words: Induction of cell cycle arrest in human LNCaP C4-2B cells assessed as accumulation cells at G2/M phase at 10 uM measured after 48 hrs incubation by flow cytometry (reference value: 10.85%). Type of experiment: functional.
For experiment [13], the system named is LNCaP C4-2B. In words: Induction of cell cycle arrest in human LNCaP C4-2B cells assessed as accumulation cells at S phase at 10 uM measured after 48 hrs incubation by flow cytometry (reference value: 18.33%). Type of experiment: functional.
For experiment [14], the system named is LNCaP C4-2B. Nature of the experiment: Induction of cell cycle arrest in human LNCaP C4-2B cells assessed as accumulation cells at G0/G1 phase at 20 uM measured after 48 hrs incubation by flow cytometry (reference value: 70.82%). Type of experiment: functional.
Experiment [15] concerns LNCaP C4-2B. In words: Induction of cell cycle arrest in human LNCaP C4-2B cells assessed as accumulation cells at G2/M phase at 20 uM measured after 48 hrs incubation by flow cytometry (reference value: 10.85%). Type of experiment: functional.
For experiment [16], the system named is LNCaP C4-2B. In words: Induction of cell cycle arrest in human LNCaP C4-2B cells assessed as accumulation cells at S phase at 20 uM measured after 48 hrs incubation by flow cytometry (reference value: 18.33%). Type of experiment: functional.
For experiment [17], the system named is LNCaP C4-2B. Nature of the experiment: Induction of cell cycle arrest in human LNCaP C4-2B cells assessed as accumulation cells at G0/G1 phase at 40 uM measured after 48 hrs incubation by flow cytometry (reference value: 70.82%). Type of experiment: functional.
In experiment [18] the test system is LNCaP C4-2B. Nature of the experiment: Induction of cell cycle arrest in human LNCaP C4-2B cells assessed as accumulation cells at G2/M phase at 40 uM measured after 48 hrs incubation by flow cytometry (reference value: 10.85%). Type of experiment: functional.
Experiment [19] deals with LNCaP C4-2B. Nature of the experiment: Induction of cell cycle arrest in human LNCaP C4-2B cells assessed as accumulation cells at S phase at 40 uM measured after 48 hrs incubation by flow cytometry (reference value: 18.33%). Type of experiment: functional.
Experiment [20] has as its system LNCaP. Nature of the experiment: Inhibition of AR protein expression in human LNCaP cells measured after 48 hrs by Western blot analysis. Conditions: dose 12.5-50 µM. Type of experiment: functional, cell-based. Background: In western blotting, separated proteins are transferred to a membrane and probed.
In experiment [21] the test system is LNCaP C4-2B. In words: Inhibition of AR protein expression in human LNCaP C4-2B cells measured after 48 hrs by Western blot analysis. Conditions: dose 12.5-50 µM. Type of experiment: functional, cell-based.

The source made the active and inactive calls. The calls are words filed in the database; no cut-off is given here.

As usually defined, the IC50 is the concentration that inhibits the measured activity by half.

Take `COC(=O)c1ccc(OC)cc1NC(=O)COc1cccc2ccccc12`: in [1], the IC50 came out at 19.6 µM.

As to `COC(=O)c1ccc(Cl)cc1NC(=O)COc1cccc2cnccc12`, in experiment [1], the IC50 was determined as 25.4 µM.

`O=C(COc1cccc2ccccc12)Nc1cc(Cl)ccc1C(=O)O`: the IC50 in experiment [1] was > 50 µM. Besides, the result in [2] was inactive.

Regarding `COC(=O)c1ccc(C(F)(F)F)cc1NC(=O)COc1cccc2ccccc12`, in experiment [1], the outcome was inactive.

Take `COC(=O)c1ccc(Cl)cc1NC(=O)COc1ccc(F)c2ccccc12`: the outcome in [1] was inactive.

On to `COC(=O)c1ccc(Br)cc1NC(=O)COc1cccc2ccccc12`, for which, in [1], the IC50 is 48.5 µM.

For the compound `COC(=O)c1ccc(F)cc1NC(=O)COc1cccc2ccccc12`, in experiment [1], the IC50 came out at 32 µM.

Turning to `COC(=O)c1cc(F)c(Cl)cc1NC(=O)COc1cccc2ccccc12`, the IC50 in experiment [1] was found to be 42.1 µM.

Turning to `COC(=O)c1ccc(Cl)cc1NC(=O)C(C)Oc1cccc2ccccc12` (stereo not given), the IC50 in experiment [1] was found to be 19 µM.

As to `COC(=O)c1ccc(Cl)cc1NC(=O)COc1ccnc2ccccc12`, the IC50 in experiment [1] stood at 32.5 µM.

As to `COC(=O)c1ccc(Cl)cc1NC(=O)COc1ccc(Cl)c2ccccc12`, the 50% inhibitory concentration (IC50) in experiment [1] was 19.9 µM.

`CNC(=O)c1ccc(Cl)cc1NC(=O)COc1cccc2ccccc12`: in experiment [1], the concentration for half-maximal inhibition (IC50) is 33.9 µM.

For the compound `COC(=O)c1ccc(Cl)cc1NC(=O)COc1ccc(Br)c2ccccc12`, the IC50 in experiment [1] is 13.3 µM; in experiment [2], > 50 µM. For the same compound, the inhibition entry in experiment [3] is “Dose-Dependent Effect”.

Consider `COC(=O)c1ccc(I)cc1NC(=O)COc1cccc2ccccc12`, for which the 50% inhibitory concentration (IC50) amounted to 12.3 µM in experiment [1] and 8.76 µM in experiment [2]. The Activity in [4] came to 34.5%; in experiment [5] it was 79%; in [6], 92.9%; in [7], 96.6%; in experiment [8], 70.84%; in [9] it was 11.05%. Besides, the Activity is on record as 18.11% in experiment [10]; 71.03% in experiment [11]; 11.44% in [12]; 17.53% in [13]; 77.27% in experiment [14]; 10.12% in [15]. Also, the Activity in experiment [16] was 12.61%; in experiment [17] it was 79.62%; in experiment [18], 8.84%; in experiment [19], 11.54%. Also, the inhibition result in experiment [20] and in [21] was “Dose-Dependent Effect” in each case.

Regarding `COC(=O)c1ccc(Cl)cc1NC(=O)COc1cccc2ccccc12`, the IC50 in [1] came to 17.1 µM; in [2], 33.5 µM.

As for `COC(=O)c1ccc(Cl)cc1NC(=O)COc1ccc(OC)c2ccccc12`, in [1], the result was inactive.

Take `COC(=O)c1ccc(C)cc1NC(=O)COc1cccc2ccccc12`: the outcome in experiment [1] was inactive.
